Consider 1 compound from patent publication US5834472A (Schering Corporation, priority 1997, dated 1998).

The subject of one series is Cryptococcus. To be noted: aqueous suspensions; cited from earlier work.
The test system of a further series is Candida. To be noted: aqueous suspensions; cited from earlier work.
The next series relates to Aspergillis. To be noted: aqueous suspensions; cited from earlier work.
The nature of a further series: water solubility. Type of series: physicochemical.

As to `CCC(C(C)O)n1ncn(-c2ccc(N3CCN(c4ccc(OCC5COC(Cn6cncn6)(c6ccc(F)cc6F)C5)cc4)CC3)cc2)c1=O` (single isomer, unassigned; (-)) [antifungal compound], the “antifungal activity against Cryptococcus” value in the series on Cryptococcus was “potent antifungal activity”. Further, the “antifungal activity against Candida” value with Candida is “potent antifungal activity”. In addition, the “antifungal activity against Aspergillis” value with Aspergillis was “potent antifungal activity”. In “water solubility”, the water solubility entry is given as “extremely low water solubility”.
